Data from patent publication US6800635B2, “Crystalline form II of cabergoline” (Pharmacia Italia, S.p.A., priority 2000, dated 2004).

Experiment: Relative thermodynamic stability of cabergoline polymorphs (slurry of a mixture of forms I and II)
Assay type: physicochemical
Settings: range of temperature between −70 and +30° C.; compared with Form I
Protocol: It can be readily prepared starting from crude material by crystallization from several solvents at low temperatures. Alternatively it can be prepared by slurry of a mixture of forms I and II in a solvent at a temperature below 30° C. The importance of cabergoline form II rests primarily (but not exclusively) in its thermodynamic stability.
Crystalline Form II cabergoline may be also prepared by subjecting a mixture of crystal forms I and II of cabergoline to a slurry procedure at a temperature below 30° C. Preferably, the mixture is stirred at room temperature in organic aliphatic linear C4-7 alkanes or C4-C5 ethers such as n-hexane or diethyl ether. In the mixture, the Form I/Form II ratio is preferably from 10:1 to 1:10. The resultant crystals were collected as above described.
A mixture of 200 mg of form I and of an equal amount of form II was added to 50 ml of n-hexane at 25° C. The suspension was stirred for about 12 hours, then filtered using a glass filter under vacuum. The collected crystals were identified by analytical methods as pure form II. The analytical data were the same of example 1.
A mixture of 50 mg of form I and of 350 mg of form II was added to 5 ml of diethyl ether at −5° C. The suspension was stirred for about 12 hours, then filtered using a glass filter under vacuum. The collected crystals were identified by analytical methods as pure form II. […]

thermodynamic stability of the polymorph: thermodynamically most stable polymorph
SMILES: C=CCN1C[C@H](C(=O)N(CCCN(C)C)C(=O)NCC)C[C@@H]2c3cccc4[nH]cc(c34)C[C@H]21 [Form II, 1((6-allylergolin-8Beta-yl)-carbonyl)-1-(3-dimethylaminopropyl)-3-ethylurea]
